Here are results for 71 compounds from PubChem BioAssay AID179 (DTP/NCI, 2004).

“And” between values parts separate entries of the source, which are not always exact repeats. Identical values can stand only once. The source made the active and inactive calls.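 The calls were made as follows: active = compounds giving half or more protection of infected cells from virus-caused growth loss, again on retest; inactive = the rest.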

For this experiment, the system named is CEM cells HIV-1 protection, formazan growth assay. The experiment is described as follows: NCI AIDS Antiviral Assay. As to conditions: for IC50: measured here: growth of uninfected CEM cells. A digest of the protocol:
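Category rules: moderately active means at least 50% protection on retest, and confirmed active means 100% protection reproducibly. The underlying data came from a formazan growth assay in HIV-1-infected CEM cells.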

For the compound `Fc1c(F)c(F)c(S)c(F)c1F`, the result was active.

With `O=c1[nH]c2ccc(CC(=S)N3CCCCC3)cc2s1`, the EC50 was greater than 200 µM and the IC50 came to 148 µM.

Take `CC(C)CCCC(C)[C@H]1CC[C@H]2[C@@H]3CC[C@H]4C[C@@H](CCC=C(c5cc(Cl)c(OCc6ccc([N+](=O)[O-])cc6)c(C(=O)O)c5)c5cc(Cl)c(OCc6ccc([N+](=O)[O-])cc6)c(C(=O)O)c5)CC[C@]4(C)[C@H]3CC[C@]12C` (some centres undefined): the EC50 is greater than 100 µM and the IC50 is greater than 100 µM.

As to `Cc1ccccc1C1CC(c2ccccc2)=NO1` (centres undefined), the EC50 is greater than 57.5 µM and the IC50 was greater than 57.5 µM.

Regarding `COC(=O)C(=O)CC(=O)CCn1[nH]c(=O)c(Cl)c(Cl)c1=O`, the EC50 was greater than 389 µM and the IC50 was determined as 295 µM.

Take `O=C1CCCC/C(=C/c2ccccc2)N1`: the result was inactive.

As to `CN(C)CNc1ncnc2onc(-c3ccccc3)c12`, the outcome was inactive.

For `COc1cc(O)c2c(c1)O[C@@H]1OCC[C@H]21`, the EC50 was greater than 1200 µM and the IC50 is 871 µM.

Regarding `CN(C)c1ccc(C(C2=C(O)c3ccccc3C(=O)C2=O)C2=C(O)c3ccccc3C(=O)C2=O)cc1`, the EC50 is greater than 200 µM and the IC50 was 30.9 µM.

With `COc1cc2c(cc1OC)C1Cc3ccc(OC)c(OC)c3C[N+]1([O-])CC2` (centres undefined), the EC50 is greater than 135 µM and the IC50 is greater than 135 µM.

Turning to `O=C1/C(=C\c2c(-c3ccccc3)nn(-c3ccccc3)c2O)C(c2ccccc2)=NN1c1ccccc1`, the EC50 was greater than 100 µM and the IC50 was greater than 100 µM.

On to `O=C1CCC2(CC1)Cc1ccccc1C2O` (centres undefined), for which the EC50 was greater than 200 µM and the IC50 was greater than 200 µM.

As for `Cc1ccc(S(=O)(=O)N2CCCC2C(=O)O[C@H]2CC[C@H]3CC=C[C@H]32)cc1` (some centres undefined), the EC50 was greater than 200 µM and the IC50 was determined as 20.9 µM.

Turning to `C[N+]1(C2=C([O-])C(F)(F)C2=O)CCOCC1`, the EC50 is greater than 200 µM and the IC50 was greater than 200 µM.

For the compound `Cc1ncc(CCl)c2c1OC(C)(C)OC2`, the EC50 is greater than 676 µM and the IC50 was 7.94 µM.

Take `O=C(O)/C=C/c1ccc(O)cc1`: the EC50 is greater than 200 µM and the IC50 is greater than 200 µM.

Regarding `O=C(Nc1c(C(=O)NC2CCCCC2)[nH]c(=O)[nH]c1=O)c1ccc(Cl)cc1`, the result was inactive.

In the case of `O=c1[nH]cnc2c1ncn2C1CCC(CO)O1` (centres undefined), the EC50 was 6.03 µM and the IC50 came to 50.1 µM.

Regarding `c1ccc2c(c1)nnn2CN1CCOCC1`, the outcome was inactive.

As to `COC(=O)c1ccccc1/C=C1\Cc2ccc(C)c(C)c2C1=O`, the EC50 was greater than 200 µM and the IC50 is greater than 200 µM.

Take `C=CC(C#CC#CCCCCCCC)O[Si](C)(C)C(C)(C)C` (centres undefined): the result was inactive.

As to `CCOC(=O)CC/C(=N/Nc1ccc(Cl)cc1[N+](=O)[O-])C(=O)OCC`, the EC50 was greater than 200 µM and the IC50 was greater than 200 µM.

For the compound `Cc1cc(=O)oc2cc(O)ccc12`, the EC50 was greater than 741 µM; the IC50 was 191 µM and > 200 µM.

As to `O=S(=O)(O)C(F)(F)C(F)(F)C(F)(F)C(F)(F)C(F)(F)C(F)(F)C(F)(F)C(F)(F)F`, the EC50 is greater than 200 µM and the IC50 was greater than 200 µM.

Turning to `C[n+]1ccc(Nc2ccc(O)cc2)c2ccc(Cl)cc21`, the EC50 was greater than 603 µM and the IC50 was 11 µM.

As for `Nc1nc(Cl)c2[nH]c(Cl)nc2n1`, the EC50 was greater than 200 µM and the IC50 worked out at 132 µM.

With `O=C1C=CC(=C(c2ccc(O)cc2)c2ccc(O)cc2)C=C1`, the result was inactive.

For the compound `CCOC(=O)c1c(NC(=O)CCl)ssc1=S`, the EC50 was greater than 200 µM and the IC50 turned out to be 50.1 µM.

`CCN=C1SC2C(=O)N(C)C(S1)C(=O)N2C`: the EC50 was greater than 692 µM and the IC50 came to 36.3 µM.

`Cc1ccc(S(=O)(=O)OCC2OC(OC3(CO)OC(COS(=O)(=O)c4ccc(C)cc4)C(O)C3O)C(O)C(O)C2O)cc1` (centres undefined): the EC50 was greater than 200 µM and the 50% inhibitory concentration (IC50) was greater than 200 µM.

On to `CN(C)CCNc1nc(-c2ccc3ccccc3c2)nc2nc[nH]c12`, for which the EC50 was greater than 200 µM and the IC50 came out at 3.8 µM.

As for `CC(=O)NS(=O)(=O)c1ccc(NC(=O)c2ccccc2SC(=O)c2ccccc2)cc1`, the EC50 was 15.1 µM and the IC50 came out at 117 µM.

For the compound `Nc1ncnc2c1nnn2C1C=CC(COS(N)(=O)=O)C1` (centres undefined), the EC50 was greater than 200 µM and the IC50 was 43.7 µM.

With `NNC(=O)c1ccccc1NC(=O)/C(=C/c1ccccc1)NC(=O)c1ccccc1`, the EC50 is greater than 200 µM and the IC50 was 87.1 µM.

As to `CC(=O)c1cccc(NC(=O)C(=O)c2c(O)c3ccccc3oc2=O)c1`, the EC50 was greater than 708 µM and the IC50 was found to be 380 µM.

Consider `CCOC(=O)/C(C#N)=C/c1ccc(SCc2ccco2)c([N+](=O)[O-])c1`, for which the EC50 is greater than 200 µM and the IC50 is greater than 200 µM.

Take `CC(C)(C)[Si](C)(C)OCC1OC(n2ccc(=O)[nH]c2=O)C/C1=N/O` (centres undefined): the EC50 is greater than 200 µM and the IC50 was 74.1 µM.

On to `O=[N+]([O-])c1ccc(-n2nc3ccc4c(no[n+]4[O-])c3[n+]2[O-])c([N+](=O)[O-])c1`, for which the EC50 was greater than 20 µM and the IC50 was determined as 0.407 µM.

For `Cc1nc(N)sc1C(=O)/C=C/c1ccc(/C=C/C(=O)c2sc(NC(=O)CCCCCCCCC(=O)Nc3nc(C)c(C(=O)/C=C/c4ccc(/C=C/C(=O)c5sc(N)nc5C)cc4)s3)nc2C)cc1`, the EC50 is greater than 251 µM and the IC50 turned out to be 162 µM.

For `CCC1=CCN(c2cc(C)ccn2)OC1c1ccccc1` (centres undefined), the EC50 is greater than 35.5 µM and the IC50 was greater than 35.5 µM.

For the compound `C=CCC1(O)C(CO[Si](C)(C)C(C)(C)C)OC(n2ccc(=O)[nH]c2=O)C1O[Si](C)(C)C(C)(C)C` (centres undefined), the EC50 is greater than 200 µM and the IC50 stood at 10.2 µM.

`CC(NCCCCCCNC(C)C(=O)O)C(=O)O` (centres undefined): the EC50 was greater than 589 µM and the IC50 is greater than 589 µM.

Consider `[Cl][Ni].[NH-]C(Cc1c[nH]cn1)C(=O)O` (centres undefined), for which the EC50 is greater than 100 µM and the IC50 was greater than 100 µM.

Regarding `CCOC(=O)C1COc2cc(-c3cc(=O)c4ccccc4o3)ccc2O1` (centres undefined), the outcome was inactive.

Take `O=C(O)c1cc2cc3c(cc2c2ccccc12)OCO3`: the EC50 is greater than 490 µM and the IC50 was 282 µM.

Take `CCCCCCCC[N+]12CN3CN(CN(C3)C1)C2`: the EC50 is greater than 759 µM and the concentration for half-maximal inhibition (IC50) was 39.8 µM.

Turning to `CC(C)[Si](OC1=C(C(=O)N(C)c2ccccc2Cl)CCCC1)(C(C)C)C(C)C`, the EC50 is greater than 200 µM and the IC50 worked out at 16.6 µM.

As for `CSC1=C(C#N)C(=O)N(c2ccc(C)cc2)C(=O)C1C#N` (centres undefined), the EC50 is greater than 200 µM and the IC50 came out at 151 µM.

As to `O=C(NCCCN(CCCCN(CCCNC(=O)C(F)(F)F)CCCc1ccccc1)CCCc1ccccc1)C(F)(F)F`, the EC50 was greater than 200 µM and the IC50 was determined as 9.77 µM.

For `Cc1csc(CCC(N)C(=O)O)n1` (centres undefined), the outcome was inactive.

For `Nn1c(CCCCCCCCc2nnc(COc3ccc4ccccc4c3O)n2N)nnc1COc1ccc2ccccc2c1O`, the EC50 is greater than 200 µM and the IC50 turned out to be 2.45 µM.

On to `COC(=O)/C(=N\Nc1nc(=S)[nH]n1N)C(C#N)c1ccc(Cl)cc1` (centres undefined), for which the EC50 is greater than 37.2 µM and the IC50 was greater than 37.2 µM.

For the compound `C=C=C(C)C(=O)N(C(C)C)C(C)C`, the EC50 is greater than 200 µM and the IC50 was greater than 200 µM.

For `CCNC(=O)C(O)C1(O)CCC2[C@@H]3CCC4=CC(=O)C=C[C@]4(C)C3[C@@H](O)C[C@@]21C` (some centres undefined), the outcome was inactive.

For `NC(=Nc1ccc(O)cc1)S(=O)O`, the EC50 is greater than 200 µM and the IC50 is 120 µM.

In the case of `CC1OC(OC2C(CO)OC(O[C@H]3CC[C@@]4(C)C(=CC[C@H]5[C@@H]6C[C@@H]7O[C@](O)(CC[C@H](C)COC8OC(CO)C(O)C(O)C8O)[C@@H](C)[C@@H]7[C@@]6(C)CC[C@@H]54)C3)C(OC3OC(C)C(O)C(O)C3O)C2O)C(O)C(O)C1O` (some centres undefined), the EC50 was greater than 200 µM and the IC50 came to 1.48 µM.

For the compound `CCOC(=O)C1=C(Nc2ccccc2)OC/C1=N\NC(=O)Cc1ccccc1`, the EC50 was greater than 46.8 µM and the IC50 is greater than 46.8 µM.

Take `O=c1[nH]c(=O)n(COCCOCc2ccccc2)cc1Nc1ccccc1`: the EC50 was greater than 200 µM and the half-maximal inhibitory concentration (IC50) amounted to 56.2 µM.

For the compound `COC(=O)c1cc(C(=CCC[C@H]2CC[C@@]3(C)[C@@H](CC[C@H]4[C@@H]3CC[C@]3(C)[C@@H](C(C)CCCC(C)C)CC[C@@H]43)C2)c2cc(F)c(OC)c(C(=O)OC)c2)cc(F)c1OC` (some centres undefined), the EC50 was greater than 200 µM and the IC50 is greater than 200 µM.

In the case of `C/C=C(/CCC1NCCc2c1[nH]c1ccccc21)[Si](C)(C)C` (centres undefined), the result was inactive.

Consider `CCOC(=O)C1S(=O)(=O)OCCOS1(=O)=O`, for which the EC50 was greater than 5750 µM and the half-maximal inhibitory concentration (IC50) turned out to be 3470 µM.

`OCCN1C(c2ccccc2)=CN2C=CSC21` (centres undefined): the EC50 is greater than 200 µM and the IC50 came to 29.5 µM.

For the compound `CC(C)(C)OC(=O)CN1CCNCCN(CC(=O)OC(C)(C)C)CC1`, the EC50 is greater than 200 µM and the IC50 turned out to be 38 µM.

Turning to `COc1cc2c(cc1C)n(O)c(C)c(C(=O)C/C(=N/NC(=O)C[N+](C)(C)C)C(=O)Nc1cccc(Cl)c1C)[n+]2=O`, the EC50 was greater than 12 µM and the IC50 is greater than 12 µM.

For the compound `O=C1/C(=C/c2ccccc2)N=C2Sc3c(nc[nH]c3=O)N12`, the result was inactive.

Turning to `CCOC(=O)C1=NN(c2ccccc2)C(=O)/C1=C\N1CCNC1=S`, the EC50 was greater than 135 µM and the IC50 is greater than 100 µM.

For `S=C1CC(=S)NC(=S)N1`, the EC50 is greater than 513 µM and the IC50 was greater than 513 µM.

In the case of `CCOC(=O)/C=C/c1ccc(N(C)C)cc1`, the EC50 is greater than 33.1 µM and the IC50 is greater than 33.1 µM.

Consider `CCCCCCCCCCCC(=O)OCC(C[As](=O)(O)O)OC(=O)CCCCCCCCCCC` (centres undefined), for which the EC50 was greater than 200 µM and the IC50 came to 1.82 µM.

`Cc1c(-c2cc3n(n2)C(c2cccs2)C(C#N)=C(c2ccccc2)N3)c(=O)n(-c2ccccc2)n1C` (centres undefined): the outcome was inactive.

Consider `C(/C=N/NC1=NCCN1)=N\NC1=NCCN1`, for which the EC50 is greater than 200 µM and the concentration for half-maximal inhibition (IC50) is greater than 200 µM.
